Laboratory results from paper PMC10258805, “Nonpeptidic Oxazole-Based Prolyl Oligopeptidase Ligands with Disease-Modifying Effects on α-Synuclein Mouse Models of Parkinson’s Disease” (Journal of Medicinal Chemistry, 2023).

Columns and labels:
[1] = test system: oligomeric αSyn in AAV-αSyn-injected mice; experiment: Oligomer-specific αSyn immunoreactivity (OD) in AAV-αSyn PD mouse model; conditions: 10 mg/kg/day minipump, 4 weeks
[2] = test system: pPP2Ac and PP2Ac in mouse brain; experiment: PP2A markers in mouse brain (Western blot); assay type: in vivo; conditions: 10 mg/kg i.p., 45 min after injection
[3] = test system: AAV2-CBA-αSyn-injected mice; experiment: Cylinder test in AAV-αSyn PD mouse model; conditions: 10 mg/kg/day minipump, after 2 weeks of treatment (6-week time point), vs vehicle-treated AAV-αSyn mice
LC3BII in HEK-293 cells = experiment: Autophagy marker LC3BII assay (Western blot); assay type: cell-based, human; conditions: HEK-293, 10 μM
[4] = test system: pPP2Ac and PP2Ac in HEK-293 cells; experiment: PP2A marker assay (Western blot); assay type: cell-based, human; conditions: HEK-293, 10 μM, 4 h

Compound: N#C[C@@H]1CCCN1C(=O)[C@@H]1CCCN1C(=O)CCCc1ccccc1 [KYP-2047, reference compound]
- OD of oligomeric αSyn in the SNpc (in words) ([1]; vs vehicle-treated group): did not significantly reduce
- OD of oligomer-specific αSyn in the STR (in words) ([1]; vs vehicle-treated mice): decreased the OD of oligomer-specific αSyn
- inactive pPP2Ac levels in mouse brain (in words) [2]: decreased inactive pPP2Ac levels, but this was not significant
- levels of PP2Ac in mouse brain (in words) [2]: significantly increased the levels of PP2Ac
- use of the ipsilateral forepaw in the cylinder test (in words) [3]: significantly decreased their use of the ipsilateral forepaw
- LC3BII levels (in words) (LC3BII in HEK-293 cells; 4 h): significant increase in LC3BII levels
- LC3BII levels (in words) (LC3BII in HEK-293 cells; 24 h): significantly elevated LC3BII levels
- total PP2Ac levels (in words) [4]: elevated total PP2Ac levels
